Legend:
MRC5 = experiment: MTS proliferation assay; format: cell-based; settings: MRC5, 72 h
How it was run: (§1)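 Compounds at final 10/3/1/0.3 μM (added in complete medium, ≤5% DMSO); 72 h, culture conditions; + MTS, 3 h; A492.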

Jily = experiment: MTS proliferation assay; format: cell-based; settings: 72 h
How it was run: as §1

HeLa = experiment: MTS proliferation assay; format: cell-based, human; settings: 72 h
How it was run: as §1

Jurkat = experiment: MTS proliferation assay; format: cell-based, human; settings: 72 h
How it was run: as §1

[1] = Hoechst 33342 nuclear staining; format: cell-based; settings: for Hoechst 33342 nuclear staining score, H460: H460 cells; for Hoechst 33342 nuclear staining score, HeLa: HeLa cells; for Hoechst 33342 nuclear staining score, Jily: Jily cells; for Hoechst 33342 nuclear staining score, Jurkat: Jurkat cells; for Hoechst 33342 nuclear staining score, MRC5: MRC5 cells; for Hoechst 33342 nuclear staining score, PBLs: key: 0: no activity; 1: weak activity comprising less than 50% of the cells; 2: strong activity comprising more than 50% of the cells;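 for all read-outs here: apoptotic nuclei scored 0 none 1 weak under 50% of cells 2 strong over 50% of cells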
How it was run: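 Cells were plated in 96 well tissue culture plates in 80 μl complete medium, with 3-5*10^3 cells per well for adherent lines and 8-10*10^3 for suspension lines. Adherent cells spread for 24 h before treatment, while suspension cells were treated right after seeding. Compounds were added in 20 μl complete medium containing max 5% DMSO.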

Compound	IC50 (MRC5)	IC50 (Jily)	IC50 (HeLa)	IC50 (Jurkat)	Hoechst 33342 nuclear staining score, H460 ([1]; conc 0.1)	Hoechst 33342 nuclear staining score, H460 ([1]; conc 0.3)	Hoechst 33342 nuclear staining score, H460 ([1]; conc 1)	Hoechst 33342 nuclear staining score, H460 ([1]; conc 3)	Hoechst 33342 nuclear staining score, HeLa ([1]; conc 0.1)	Hoechst 33342 nuclear staining score, HeLa ([1]; conc 0.3)	Hoechst 33342 nuclear staining score, HeLa ([1]; conc 1)	Hoechst 33342 nuclear staining score, HeLa ([1]; conc 3)	Hoechst 33342 nuclear staining score, Jily ([1]; conc 0.1)	Hoechst 33342 nuclear staining score, Jily ([1]; conc 0.3)	Hoechst 33342 nuclear staining score, Jily ([1]; conc 1)	Hoechst 33342 nuclear staining score, Jily ([1]; conc 3)	Hoechst 33342 nuclear staining score, Jurkat ([1]; conc 0.1)	Hoechst 33342 nuclear staining score, Jurkat ([1]; conc 0.3)	Hoechst 33342 nuclear staining score, Jurkat ([1]; conc 1)	Hoechst 33342 nuclear staining score, Jurkat ([1]; conc 3)	further results
COc1ccc(S(=O)(=O)n2cc(-c3ccc(N)nc3)cc2-c2ccc(OC)cc2OC)cc1 [Example 102]	> 1000 nM	< 1000 nM	> 1000 nM	< 1000 nM	0	0	1 (weak activity comprising less than 50% of the cells)	2 (strong activity comprising more than 50% of the cells)	0	0	1 (weak activity comprising less than 50% of the cells)	2 (strong activity comprising more than 50% of the cells)	0	0	2 (strong activity comprising more than 50% of the cells)	2 (strong activity comprising more than 50% of the cells)	0	0	2 (strong activity comprising more than 50% of the cells)	2 (strong activity comprising more than 50% of the cells)	Hoechst 33342 nuclear staining score, MRC5 ([1]; conc 0.1): 0; Hoechst 33342 nuclear staining score, MRC5 ([1]; conc 0.3): 0; Hoechst 33342 nuclear staining score, MRC5 ([1]; conc 1): 0; Hoechst 33342 nuclear staining score, MRC5 ([1]; conc 3): 2 (strong activity comprising more than 50% of the cells); Hoechst 33342 nuclear staining score, PBLs ([1]; conc 0.1): 0; Hoechst 33342 nuclear staining score, PBLs ([1]; conc 0.3): 0; Hoechst 33342 nuclear staining score, PBLs ([1]; conc 1): 0; Hoechst 33342 nuclear staining score, PBLs ([1]; conc 3): 0
COc1ccc(S(=O)(=O)n2cc(CNc3ccc(N4CCOCC4)cc3)cc2-c2cc(OC)ccc2OC)cc1 [Example 95]	> 1000 nM	> 1000 nM	> 1000 nM	> 1000 nM	0	0	0	2 (strong activity comprising more than 50% of the cells)	0	0	0	2 (strong activity comprising more than 50% of the cells)	0	0	0	2 (strong activity comprising more than 50% of the cells)	0	0	0	2 (strong activity comprising more than 50% of the cells)	Hoechst 33342 nuclear staining score, MRC5 ([1]; conc 0.1): 0; Hoechst 33342 nuclear staining score, MRC5 ([1]; conc 0.3): 0; Hoechst 33342 nuclear staining score, MRC5 ([1]; conc 1): 0; Hoechst 33342 nuclear staining score, MRC5 ([1]; conc 3): 0; Hoechst 33342 nuclear staining score, PBLs ([1]; conc 0.1): 0; Hoechst 33342 nuclear staining score, PBLs ([1]; conc 0.3): 0; Hoechst 33342 nuclear staining score, PBLs ([1]; conc 1): 0; Hoechst 33342 nuclear staining score, PBLs ([1]; conc 3): 0
COc1cc(-c2cc(-c3cccnc3)cn2S(=O)(=O)c2ccccc2Cl)cc(OC)c1OC [Example 84]	> 1000 nM	> 1000 nM	> 1000 nM	> 1000 nM	0	0	0	0	0	0	0	0	0	0	0	0	0	0	0	0	Hoechst 33342 nuclear staining score, MRC5 ([1]; conc 0.1): 0; Hoechst 33342 nuclear staining score, MRC5 ([1]; conc 0.3): 0; Hoechst 33342 nuclear staining score, MRC5 ([1]; conc 1): 0; Hoechst 33342 nuclear staining score, MRC5 ([1]; conc 3): 0; Hoechst 33342 nuclear staining score, PBLs ([1]; conc 0.1): 0; Hoechst 33342 nuclear staining score, PBLs ([1]; conc 0.3): 0; Hoechst 33342 nuclear staining score, PBLs ([1]; conc 1): 0; Hoechst 33342 nuclear staining score, PBLs ([1]; conc 3): 0
COc1cc(-c2cc(-c3cccnc3)cn2S(=O)(=O)c2cccs2)cc(OC)c1OC [Example 90]	> 1000 nM	< 1000 nM	> 1000 nM	< 1000 nM	0	0	0	2 (strong activity comprising more than 50% of the cells)	0	0	0	2 (strong activity comprising more than 50% of the cells)	0	0	1 (weak activity comprising less than 50% of the cells)	1 (weak activity comprising less than 50% of the cells)	0	0	2 (strong activity comprising more than 50% of the cells)	2 (strong activity comprising more than 50% of the cells)	Hoechst 33342 nuclear staining score, MRC5 ([1]; conc 0.1): 0; Hoechst 33342 nuclear staining score, MRC5 ([1]; conc 0.3): 0; Hoechst 33342 nuclear staining score, MRC5 ([1]; conc 1): 0; Hoechst 33342 nuclear staining score, MRC5 ([1]; conc 3): 0; Hoechst 33342 nuclear staining score, PBLs ([1]; conc 0.1): 0; Hoechst 33342 nuclear staining score, PBLs ([1]; conc 0.3): 0; Hoechst 33342 nuclear staining score, PBLs ([1]; conc 1): 0; Hoechst 33342 nuclear staining score, PBLs ([1]; conc 3): 0
COc1ccc(S(=O)(=O)n2cc(-c3cncc(C(N)=O)c3)cc2-c2ccccc2OC)cc1 [Example 107]	> 1000 nM	< 1000 nM	> 1000 nM	< 1000 nM	0	0	1 (weak activity comprising less than 50% of the cells)	2 (strong activity comprising more than 50% of the cells)	0	0	0	2 (strong activity comprising more than 50% of the cells)	0	0	2 (strong activity comprising more than 50% of the cells)	2 (strong activity comprising more than 50% of the cells)	0	0	2 (strong activity comprising more than 50% of the cells)	2 (strong activity comprising more than 50% of the cells)	Hoechst 33342 nuclear staining score, MRC5 ([1]; conc 0.1): 0; Hoechst 33342 nuclear staining score, MRC5 ([1]; conc 0.3): 0; Hoechst 33342 nuclear staining score, MRC5 ([1]; conc 1): 0; Hoechst 33342 nuclear staining score, MRC5 ([1]; conc 3): 0; Hoechst 33342 nuclear staining score, PBLs ([1]; conc 0.1): 0; Hoechst 33342 nuclear staining score, PBLs ([1]; conc 0.3): 0; Hoechst 33342 nuclear staining score, PBLs ([1]; conc 1): 0; Hoechst 33342 nuclear staining score, PBLs ([1]; conc 3): 0
COc1cc(-c2cc(-c3cncc(C(=O)NCCN4CCOCC4)c3)cn2S(=O)(=O)c2ccc(C)cc2)cc(OC)c1OC.Cl [Example 64]	< 1000 nM	< 1000 nM	< 1000 nM	< 1000 nM	0	0	2 (strong activity comprising more than 50% of the cells)	2 (strong activity comprising more than 50% of the cells)	0	0	2 (strong activity comprising more than 50% of the cells)	2 (strong activity comprising more than 50% of the cells)	0	0	2 (strong activity comprising more than 50% of the cells)	2 (strong activity comprising more than 50% of the cells)	0	0	2 (strong activity comprising more than 50% of the cells)	2 (strong activity comprising more than 50% of the cells)	Hoechst 33342 nuclear staining score, MRC5 ([1]; conc 0.1): 0; Hoechst 33342 nuclear staining score, MRC5 ([1]; conc 0.3): 0; Hoechst 33342 nuclear staining score, MRC5 ([1]; conc 1): 2 (strong activity comprising more than 50% of the cells); Hoechst 33342 nuclear staining score, MRC5 ([1]; conc 3): 2 (strong activity comprising more than 50% of the cells); Hoechst 33342 nuclear staining score, PBLs ([1]; conc 0.1): 0; Hoechst 33342 nuclear staining score, PBLs ([1]; conc 0.3): 0; Hoechst 33342 nuclear staining score, PBLs ([1]; conc 1): 0; Hoechst 33342 nuclear staining score, PBLs ([1]; conc 3): 0
